Columns and labels:
human NK3 = molecular target: T1, human NK3 (Homo sapiens, UniProt P29371); assay: FLIPR calcium assay in antagonist mode (NKB EC70 challenge); format: cell-based; details: stable cell line expressing human recombinant NK3; antagonist mode vs EC70 of NKB agonist
T1 sequence (P29371 1-465): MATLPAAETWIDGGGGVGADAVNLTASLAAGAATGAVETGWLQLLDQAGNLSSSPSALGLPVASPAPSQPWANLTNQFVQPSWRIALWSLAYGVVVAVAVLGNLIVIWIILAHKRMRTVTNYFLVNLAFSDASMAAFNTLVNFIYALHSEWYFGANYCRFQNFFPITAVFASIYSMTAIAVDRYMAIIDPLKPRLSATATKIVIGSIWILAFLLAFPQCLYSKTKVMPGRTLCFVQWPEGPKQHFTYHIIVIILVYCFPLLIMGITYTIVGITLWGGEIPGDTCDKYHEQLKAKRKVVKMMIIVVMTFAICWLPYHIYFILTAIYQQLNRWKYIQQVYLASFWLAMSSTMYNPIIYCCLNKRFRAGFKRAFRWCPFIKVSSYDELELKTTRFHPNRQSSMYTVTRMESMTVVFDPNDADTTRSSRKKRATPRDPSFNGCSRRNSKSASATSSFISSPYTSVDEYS
Summary of the method: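 Recombinant human NK3 stable cells loaded with Calcium 6 dye were given compound, read for 10 min, then challenged with NKB at its predetermined EC70 and read 10 min by FLIPR. The second peak minus baseline was normalized to 10 μM and 0 μM antagonist controls, and fitted for IC50 and efficacy.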

[1] = test system: acute nitroglycerin (NTG) migraine model in rats; assay: Acute nitroglycerin (NTG) rat migraine model, periorbital von Frey threshold; format: in vivo; details: male Sprague Dawley rats, 10 mg/kg NTG i.p., 30 mg/kg test compound, 90 min; 50% periorbital threshold after compound / baseline x 100
Method: An acute nitroglycerin (NTG) model was used to assess migraine efficacy in rats (for a review see: Sureda-Gibert, P, Neurobiol Pain. 2022 August-December; 12: 100105). Briefly, male Sprague Dawley rats, 8-weeks old (Charles River Laboratories), were pair-housed in a 12-h light cycle room upon facility arrival and left to acclimate for a minimum of 72 h. Animals were provided standard rodent chow (PicoLab Rodent Diet, 5053) and water ad libitum. Following the acclimation period, rats underwent a single behavioral testing apparatus acclimation. Rats were left to freely move and habituate for a minimum of 20 min. The testing apparatus used was a Multiple Configuration Animal Enclosure (Ugo Basile, 37000-007) placed on a self-standing table with a mesh-perforated bottom.
Periorbital threshold was measured using the up-down method (Chaplan, S. R., et al., J Neurosci Methods, 1994 July; 53(1):55-63), in which von Frey filaments (Ugo Basile, 37450-275) of increasing forces (0.4-15 g) were applied to the periorbital region until an application of a filament evoked a response, typically indicated by a rapid withdrawal response or paw swipe to the periorbital region. Once a response was observed, four more readings were obtained following the first change of direction to determine the withdrawal threshold close to 50%. The 50% threshold was then calculated using the following formula: 50% threshold (g)=10^(X+kd)/10^4, where X=the value, in log units, of the final von Frey filament, k=tabular value for the response pattern, and d=the average increment, in log units, between von Frey filaments.
Following acclimation, a baseline assessment was performed, and rats were then randomized into balanced treatment groups using baseline periorbital threshold measurements. On the day of the experiment, rats (n=12/group) were weighed and administered 10 mg/kg NTG (2 mg/mL in 0.9% saline; Henry Schein, NDC-0517-4810-25) by intraperitoneal injection, immediately followed by their assigned compound treatment of either vehicle (0.25% methyl cellulose, 5% Tween 80, 0.02% sodium dodecyl sulfate (SDS) in Hanks' Buffered Salt Solution with Ca^2+ and Mg^2+), 10 mg/kg sumatriptan as a positive control (2 mg/mL in vehicle; Ambeed, A260899-1g) or 30 mg/kg test compound (10 mg/mL in vehicle).
Approximately 70 min post dosing, animals were placed in the behavioral testing apparatus and allowed to habituate to individual enclosures for a minimum of 20 min prior to von Frey assessment. Von Frey measurements were then recorded at 90 and 120. Upon final measurement, rats were immediately euthanized via CO2 asphyxiation followed by exsanguination. Blood was collected in lithium-heparin serum-separating tubes (BD, 365985) and processed for serum collection. Serum samples were then stored at −80° C.
Migraine efficacy (%) was calculated by dividing the 50% threshold (g) following administration of test compound by the baseline 50% threshold (g) and then multiplying by 100.

P-glycoprotein (P-gp) = molecular target: T2, P-glycoprotein (P-gp) (Homo sapiens, UniProt P08183); assay: P-gp substrate assessment in MDR1-MDCK II cells; format: in vitro ADME; details: dog, MDCK-MDR1, pH 7.4
T2 construct: expressed in transfected cells; host or cells: MDR1-MDCK II
T2 sequence (P08183 whole entry): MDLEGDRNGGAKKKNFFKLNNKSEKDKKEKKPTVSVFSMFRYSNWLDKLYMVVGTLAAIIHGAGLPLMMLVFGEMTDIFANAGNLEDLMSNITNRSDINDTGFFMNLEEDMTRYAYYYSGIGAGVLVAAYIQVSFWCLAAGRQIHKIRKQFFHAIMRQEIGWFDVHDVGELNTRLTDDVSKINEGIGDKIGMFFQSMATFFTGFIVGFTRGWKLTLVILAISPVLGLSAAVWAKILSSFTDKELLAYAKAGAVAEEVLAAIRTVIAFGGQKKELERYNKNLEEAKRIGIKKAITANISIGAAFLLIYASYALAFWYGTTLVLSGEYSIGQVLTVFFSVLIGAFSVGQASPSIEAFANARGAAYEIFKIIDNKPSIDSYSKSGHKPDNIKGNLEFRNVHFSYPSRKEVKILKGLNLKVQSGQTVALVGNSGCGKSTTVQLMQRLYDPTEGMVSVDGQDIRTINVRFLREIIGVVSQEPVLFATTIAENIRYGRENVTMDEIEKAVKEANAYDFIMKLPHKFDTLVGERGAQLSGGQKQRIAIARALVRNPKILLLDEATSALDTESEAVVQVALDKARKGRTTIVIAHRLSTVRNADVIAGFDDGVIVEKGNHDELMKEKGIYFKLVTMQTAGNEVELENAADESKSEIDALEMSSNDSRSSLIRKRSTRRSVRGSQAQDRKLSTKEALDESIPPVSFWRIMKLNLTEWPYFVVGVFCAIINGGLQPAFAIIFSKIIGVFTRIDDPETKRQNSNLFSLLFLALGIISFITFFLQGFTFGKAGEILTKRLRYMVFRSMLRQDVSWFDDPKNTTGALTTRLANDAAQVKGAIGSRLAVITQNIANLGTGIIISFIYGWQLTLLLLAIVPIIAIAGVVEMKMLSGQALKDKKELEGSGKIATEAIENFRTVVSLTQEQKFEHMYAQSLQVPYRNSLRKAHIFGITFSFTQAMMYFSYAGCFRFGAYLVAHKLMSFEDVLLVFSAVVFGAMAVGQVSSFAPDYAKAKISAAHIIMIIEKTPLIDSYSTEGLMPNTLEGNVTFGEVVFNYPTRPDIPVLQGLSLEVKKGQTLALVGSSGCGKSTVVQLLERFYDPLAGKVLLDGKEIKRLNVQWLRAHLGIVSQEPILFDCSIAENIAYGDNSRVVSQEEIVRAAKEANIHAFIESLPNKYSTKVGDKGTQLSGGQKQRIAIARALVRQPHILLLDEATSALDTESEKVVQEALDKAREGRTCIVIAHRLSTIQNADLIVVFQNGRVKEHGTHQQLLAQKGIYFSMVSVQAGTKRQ
Method: MDR1-MDCK II from passage 5-35 were used for P-gp substrate assessment studies. Briefly, test compounds were diluted with transport buffer (HBSS with 10 mM HEPES, pH 7.4) from stock solution to a concentration of 2.00 μM (DMSO<1%) and applied to the apical or basolateral side of the cell monolayer. […] Compounds were quantified by LC/MS/MS analysis based on the peak area ratio of analyte/internal standard. The efflux ratio of each compound was determined according to the following equation: Efflux Ratio=Papp (BA)/Papp (AB).

| Structure (SMILES) | IC50 (human NK3) [nM] | efflux ratio at 150 min, 2 μM (P-glycoprotein (P-gp)) | Efficacy (%) [1] [%] |
| --- | --- | --- | --- |
| Cn1cc(-c2cccc(F)c2-c2nc3cc(C(=O)N4CCC5(CC4)CC(C)(O)C5)ccn3c2Cl)cn1 [Compound 915, (3-chloro-2-(2-fluoro-6-(1-methyl-1H-pyrazol-4-yl)phenyl)imidazo[1,2-a]pyridin-7-yl)(2-hydroxy-2-methyl-7-azaspiro[3.5]nonan-7-yl)methanone] | 4.22 |  | 92 |
| Cc1nn(C)cc1-c1cc(F)ccc1-c1nc2cc(C(=O)N[C@@H]3CO[C@H]4[C@@H]3OC[C@H]4O)ccn2c1Cl [Compound 16, 3-chloro-2-(2-(1,3-dimethyl-1H-pyrazol-4-yl)-4-fluorophenyl)-N-((3R,3aR,6R,6aR)-6-hydroxyhexahydrofuro[3,2-b]furan-3-yl)imidazo[1,2-a]pyridine-7-carboxamide] |  |  | 82 |
| Cc1nn(C)cc1-c1cccc(F)c1-c1nc2cc(C(=O)N3CCNCC3)ccn2c1Cl [Compound 799] | 4.7 |  |  |
| Cc1nn(C)cc1-c1ccccc1-c1nc2cc(C(=O)N3CCc4c[nH]nc4C3)ccn2c1Cl [Compound 452] | 2.79 |  |  |
| CC12CC(NC(=O)c3ccn4c(Cl)c(-c5c(F)cccc5-c5cn[nH]c5)nc4c3)(C1)C2 [Compound 856] | 11.8 |  |  |
| Cc1nn(C)cc1-c1ccccc1-c1nc2cc(C(=O)N[C@H]3C[C@](C)(C(=O)O)C3)ccn2c1C [Compound 317] | 7.03 |  |  |
| Cn1cc(-c2ccc(F)c(F)c2-c2nc3cc(C(=O)NC45COC(C)(C4)C5)ccn3c2C#N)c(F)n1 [Compound 932, 3-cyano-2-(2,3-difluoro-6-(3-fluoro-1-methyl-1H-pyrazol-4-yl)phenyl)-N-(1-methyl-2-oxabicyclo[2.1.1]hexan-4-yl)imidazo[1,2-a]pyridine-7-carboxamide] | 6.09 |  |  |
| Cc1nn(C)cc1-c1cccc(F)c1-c1nc2cc(C(=O)N[C@H]3CO[C@H]4[C@@H]3OC[C@@H]4O)ccn2c1C#N [Compound 775] | 4.64 |  |  |

More lines, main results first:

| IC50 (human NK3) [nM] | efflux ratio at 150 min, 2 μM (P-glycoprotein (P-gp)) | Structure (SMILES) | Efficacy (%) [1] [%] |
| --- | --- | --- | --- |
| 2.61 |  | Cn1cc(-c2cccc(F)c2-c2nc3cc(C(=O)NC45COC(C)(C4)C5)ccn3c2C#N)c(F)n1 [Compound 845, 3-cyano-2-(2-fluoro-6-(3-fluoro-1-methyl-1H-pyrazol-4-yl)phenyl)-N-(1-methyl-2-oxabicyclo[2.1.1]hexan-4-yl)imidazo[1,2-a]pyridine-7-carboxamide] | 92 |
| 1.51 |  | Cc1nn(C)cc1-c1cc(F)cc(F)c1-c1nc2cc(C(=O)N[C@@H]3CO[C@H]4[C@@H]3OC[C@H]4O)ccn2c1Cl [Compound 787, 3-chloro-2-(2-(1,3-dimethyl-1H-pyrazol-4-yl)-4,6-difluorophenyl)-N-((3R,3aR,6R,6aR)-6-hydroxyhexahydrofuro[3,2-b]furan-3-yl)imidazo[1,2-a]pyridine-7-carboxamide] | 70 |
| 1.06 |  | Cn1cc(-c2cccc(F)c2-c2nc3cc(C(=O)N[C@]45CC[C@](CO)(C4)OC5)ccn3c2Cl)c(F)n1 (single isomer, unassigned; second eluting) [Compound 920, 3-chloro-2-(2-fluoro-6-(3-fluoro-1-methyl-1H-pyrazol-4-yl)phenyl)-N-(1-(hydroxymethyl)-2-oxabicyclo[2.2.1]heptan-4-yl)imidazo[1,2-a]pyridine-7-carboxamide, second eluting enantiomer] | 100 |
| 1.21 | 32.7 | Cc1nn(C)cc1-c1ccccc1-c1nc2cc(C(=O)N[C@@H]3CO[C@H]4[C@@H]3OC[C@H]4O)ccn2c1Cl [Compound 7, 3-chloro-2-(2-(1,3-dimethyl-1H-pyrazol-4-yl)phenyl)-N-((3R,3aR,6R,6aR)-6-hydroxyhexahydrofuro[3,2-b]furan-3-yl)imidazo[1,2-a]pyridine-7-carboxamide] | 81 |
| 1.38 |  | Cn1cc(-c2cccc(F)c2-c2nc3cc(C(=O)N4CC5(C4)CC(C)(O)C5)ccn3c2Cl)c(F)n1 [Compound 842] |  |
| 1.92 |  | Cc1nn(C)cc1-c1c(F)c(F)cc(F)c1-c1nc2cc(C(=O)N3C[C@@H]4C[C@H]3C(=O)N4)ccn2c1Cl [Compound 817] |  |
| 1.53 |  | Cc1nn(C)cc1-c1ccccc1-c1nc2cc(C(=O)NC[C@]34C[C@](O)(C3)C4)ccn2c1Cl [Compound 633] |  |
| 1.4 |  | C[C@]1(O)C[C@H](NC(=O)c2ccn3c(Cl)c(-c4ccccc4-c4cn(C5CC5)nc4Cl)nc3c2)C1 [Compound 826] |  |
| 1.85 |  | Cn1cc(-c2cccc(F)c2-c2nc3cc(C(=O)N[C@H]4C[C@](C)(O)C4)ccn3c2C#N)c(F)n1 [Compound 925, 3-cyano-2-(2-fluoro-6-(3-fluoro-1-methyl-1H-pyrazol-4-yl)phenyl)-N-((1r,3r)-3-hydroxy-3-methylcyclobutyl)imidazo[1,2-a]pyridine-7-carboxamide] |  |

From patent publication US12281114B2, “NK3 modulators and uses thereof” (Kallyope, Inc., priority 2023, dated 2025)
